Assay results from patent US20260021122A1, “CANNABINOIDS AND USES THEREOF IN TREATMENT OF A DISEASE” (TECHNION RESEARCH & DEVELOPMENT FOUNDATION LIMITED, priority 2022, published 2026).

Experiments:
BM-MDSCs [1] = test: iNOS and Arg-1 expression by BM-MDSC subpopulations (flow cytometry, western blot); format: cell-based, mice
Method: (§1) Bone-marrow-derived cells (BMDCs) were isolated from the fibula and tibia bones of healthy female WT C57BL/6 mice (8-12-week-old). Red blood cells were removed by using red blood lysis buffer (Biological industries, Cat #01-888-1B). Remaining cells were counted and 1×10^6 cells were seeded in complete RPMI (Sigma, Cat #R8758) containing 10% FBS (Sigma, Cat #F7524), 1% L-Glutamine (Sartorius, Cat #03-020-1B), 1% Penicillin/[…] (Sartorius, Cat #03-031-1B), 1% MEM-Eagle (Sartorius, Cat #01-340-1B), 2.5% HEPES (Sartorius, Cat #03-025-1B) and 1% sodium pyruvate (Sartorius, Cat #03-042-1B) and supplemented with 20 ng/ml of GM-CSF and IL-6 (R&D systems, 415-ML and 406-ML). Cells were incubated at 37° C. and 5% CO2 for 4 days and then treated with conditioned media, which was the media collected from B16F10 cells treated with either DMSO, CBG, or the high-CBG extract 3704 as indicated.
(§2) To differentiate the subpopulation of myeloid cells, BMDCs and myeloid cells from tumors were stained for the extracellular makers Ly6C-BV421 (BioLegend, Clone HK1.4; Cat #128032) or Ly6C-FITC (BioLegend, Cat #128096, Clone HK1.4), Ly6G-APC (BioLegend, Clone 1A8; Cat #127614), Ly6G-BV421 (BioLegend, Cat #127627, clone 1A8), PECy7-F4/80 (BioLegend, Clone BM8 Cat #123113), BV605-CD86 (BioLegend, Clone GL-1, Cat #105037), APC-CD206 (Biolegend, Clone CO68C2, Cat #141708) and BV711-CD45 (BioLegend, Clone 30F11, Cat #103147). Cells from tumors were also stained with PE-CD3+ (BioLegend, Clone 17A2, Cat #100206) to identify the overall T-cell population. To characterize the cells in the subpopulations, cells were fixed and permeabilized with the Intracellular Fixation and Permeabilization Buffer Set (eBioscience Cat #88-8824-00) and stained with FITC-iNOS (Thermo, Clone CXNFT, Cat #53592082) or FITC-Arginase-1 (Thermo, Clone AlexF5, Cat #53-3697-82). These cells were also stained with Fixable viability Dye (FVD)-eflour 780 (Thermo, Cat #65086514) to exclude dead cells.
To analyze the two subpopulations of BM-MDSCs, the cells were stained with Ly6C-BV421 and Ly6G-APC and sorted into MO-MDSC or PMN-MDSC using the BD FACSAria III Cell Sorter instrument (BD Biosciences). Directly after sorting, the two separate subpopulations were co-cultured with CD8+ T-cells or lysed and further analyzed via western blot.
B16F10 cells, and sorted MO-MDSC and PMN-MDSC achieved as described, were lysed in RIPA buffer (Sigma, Cat #R0278) supplemented with Protease/Phosphatase Inhibitor Cocktail (Cell signaling, Cat #5872S) on ice for 20 minutes. Total protein concentrations were measured using the detergent-compatible protein assay (Bio-Rad, Cat #5000113 and 5000114) and equal amounts were loaded onto a 4%-20% gradient gel (Invitrogen, Cat #XPO4202) and semidry transferred into a nitrocellulose membrane (Bio-Rad, Cat #1704159). The membrane was incubated with the primary antibodies CSF-1 (Santa Cruz; Clone D-4; #sc-365779), iNOS (Abcam; Clone #ab15323) or GAPDH (Cell Signaling Technology, Cat #14C10). Secondary antibodies used in this study were HRP-conjugated and the membranes were developed with the ECL detection kit (Millipore, Cat #WBLUR).

BM-MDSCs [2] = test: BM-MDSCs treated with conditioned media from treated B16F10 cells: myeloid subpopulation frequencies and F4/80; format: cell-based, mice; details: for reduction in the F4/80 MFI in Ly6C+ cells compared to DMSO: CM from treated B16F10 cells
Method: as §1, §2

CSF-1 [3] = test: ELISA of secreted CSF-1 in media of A375 cells; format: cell-based, human; details: 1.5 μg/ml CBG, 2 μg/ml 3704, 6 μg/ml CAN
Method: The media from B16F10 and A375 cell lines, or homogenates from B16F10 tumors, that were treated as indicated for 24 hours, were collected and the protein concentration of MCP-1, MIP-2, C-C Motif Chemokine Ligand 5 (CCL5), and CSF-1 were measured by Quantikine Mouse M-CSF Immunoassay solid-phase ELISA kit (R&D systems, Cat #MMC00) as described in the manufacture's protocol.

CSF-1 [4] = test: CSF-1 protein levels in B16F10 cells by confocal microscopy and western blot; format: cell-based, murine; details: 1.5 μg/ml CBG or 2 μg/ml 3704, 24 hours, both methods
Method: B16F10 cells were seeded on 13 mm coverslips (Bar Naor Ltd., Cat #BN1001-13-1CN) and treated with either synthetic CBG or Cannabis extract 3704 for 24 hours. Then, cells were fixed at room temperature with 4% PFA (Electron Microscopy Sciences, Cat #15710) in PBS (Sartorius, Cat #02-023-1A) for 20 minutes, permeabilized by 0.3% Triton-100× (Sigma, Cat #T8787) in PBS for 10 minutes and Blocked with a solution containing 5% Normal Goat Serum (Abcam, Cat #ab7481), 0.25% Gelatin (Sigma-Aldrich, Cat #G7041) and 0.1% Triton-X100 in PBS for 1 hour. […] Analysis was conducted using the IMARIS software and results were calculated using the formula: mean AF-488 intensity divided by the number of nuclei.
B16F10 cells, and sorted MO-MDSC and PMN-MDSC achieved as described, were lysed in RIPA buffer (Sigma, Cat #R0278) supplemented with Protease/Phosphatase Inhibitor Cocktail (Cell signaling, Cat #5872S) on ice for 20 minutes. Total protein concentrations were measured using the detergent-compatible protein assay (Bio-Rad, Cat #5000113 and 5000114) and equal amounts were loaded onto a 4%-20% gradient gel (Invitrogen, Cat #XPO4202) and semidry transferred into a nitrocellulose membrane (Bio-Rad, Cat #1704159). […]

[5] = CM of treated B16F10 vs CM of DMSO-treated B16F10, 24 hours, flow cytometry

CCCCCc1cc(O)c(C/C=C(\C)CCC=C(C)C)c(O)c1 [CBG, cannabigerol]
iNOS expression by western blot in sorted subsets (BM-MDSCs [1]; CM from treated B16F10 vs CM of DMSO-treated B16F10, sorted MO-MDSC and PMN-MDSC): reduction of iNOS expression specifically in MO-MDSCs
iNOS expression by MO-MDSC (BM-MDSCs [1]; [5]): significantly decreased iNOS expression
iNOS expression by PMN-MDSC (BM-MDSCs [1]; [5]): did not detect a significant decrease in iNOS expression
Arg-1 expression in MO-MDSCs and PMN-MDSCs (BM-MDSCs [1]; CM of treated B16F10 vs CM of DMSO-treated B16F10, 24 hours, flow cytometry, neither subpopulation): did not detect a significant difference in Arg-1 expression
iNOS expression in directly treated BM-MDSCs (each subpopulation) (BM-MDSCs [1]; medium from untreated B16F10 together with 2 g/ml CBG or 6 μg/ml 3704 for 24 hours, vs DMSO): did not detect any significant differences
overall percentage of monocytes (Ly6C+/Ly6G− cells) (BM-MDSCs [2]; BM-MDSCs treated 24 hours with CM from B16F10 treated with CBG 1.5 μg/ml or 3704 2 μg/ml): did not change
PMN-MDSC frequencies (Ly6C+/Ly6G+) (BM-MDSCs [2]; CM from B16F10 treated with CBG 1.5 μg/ml or 3704 2 μg/ml): not affected by any treatment
MO-MDSC (Ly6Chigh/Ly6G−) percentages (BM-MDSCs [2]; CM from B16F10 treated with CBG 1.5 μg/ml or 3704 2 μg/ml, compared to B16F10 treated with DMSO): significant decrease in MO-MDSC percentages
reduction in the F4/80 MFI in Ly6C+ cells compared to DMSO (BM-MDSCs [2]; 24 hours): trend was apparent after 24 hours
reduction in the F4/80 MFI in Ly6C+ cells compared to DMSO (BM-MDSCs [2]; 48 hours): statistically significant after 48 hours
CSF-1 secretion by A375 cells (CSF-1 [3]): reduced CSF-1 secretion
CSF-1 protein levels in B16F10 cells (CSF-1 [4]): decreased CSF-1 protein levels
